Active and inactive are the calls of the source. No rule for the calls is given here.
Test system: CCRIS mutagenicity, Ames/micronucleus/aberration tests
Assay: CCRIS mutagenicity studies
[1] = Test System: AMES SALMONELLA TYPHIMURIUM, Strain/Indicator: TA98, Metabolic Activation: NONE, Method: PREINCUBATION
[2] = Test System: AMES SALMONELLA TYPHIMURIUM, Strain/Indicator: TA100, Metabolic Activation: NONE, Method: PREINCUBATION

With `Cc1cc(-c2ccc(N)c(C)c2)ccc1N` the mutagenic call (End Point: IN VITRO CHROMOSOMAL ABERRATIONS, Test System: CHINESE HAMSTER OVARY CELLS, Metabolic Activation: NONE) was “active; positive”, the mutagenic call (End Point: IN VITRO CHROMOSOMAL ABERRATIONS, Test System: CHINESE HAMSTER OVARY CELLS, Metabolic Activation: RAT, LIVER, S-9, AROCLOR 1254) was “active; positive” and the mutagenic call (End Point: IN VITRO CHROMOSOMAL ABERRATIONS, Test System: CHL CELLS, Metabolic Activation: NONE) was “active; positive (structural changes)”. The mutagenic call (End Point: IN VITRO CHROMOSOMAL ABERRATIONS, Test System: CHL CELLS, Metabolic Activation: RAT, LIVER, S-9, SODIUM PHENOBARBITAL AND 5,6-BENZOFLAVONE) was “inactive; negative; authors report equivocal results for structural changes at the highest”, the mutagenic call (Test System: AMES SALMONELLA TYPHIMURIUM, Strain/Indicator: SV50, Metabolic Activation: NONE, Method: PREINCUBATION (PRIVAL METHOD)) was “inactive; negative” and the mutagenic call (Test System: AMES SALMONELLA TYPHIMURIUM, Strain/Indicator: SV50, Metabolic Activation: RAT, LIVER, S-9, AROCLOR 1254, Method: STANDARD PLATE) was “inactive; negative”. The mutagenic call (Test System: AMES SALMONELLA TYPHIMURIUM, Strain/Indicator: TA97, Metabolic Activation: HAMSTER, LIVER, S-9, AROCLOR 1254 (10%), Method: PREINCUBATION) was “inactive; negative”, the mutagenic call (Test System: AMES SALMONELLA TYPHIMURIUM, Strain/Indicator: TA97, Metabolic Activation: HAMSTER, LIVER, S-9, AROCLOR 1254, Method: PREINCUBATION) was “inactive; negative” and the mutagenic call (Test System: AMES SALMONELLA TYPHIMURIUM, Strain/Indicator: TA97, Metabolic Activation: NONE, Method: PREINCUBATION) was “inactive; negative”. For the same compound, the mutagenic call (Test System: AMES SALMONELLA TYPHIMURIUM, Strain/Indicator: TA97, Metabolic Activation: RAT, LIVER, S-9, AROCLOR 1254 (10%), Method: PREINCUBATION) was “inactive; negative”, the mutagenic call (Test System: AMES SALMONELLA TYPHIMURIUM, Strain/Indicator: TA97, Metabolic Activation: RAT, LIVER, S-9, AROCLOR 1254, Method: PREINCUBATION) was “inactive; negative” and the mutagenic call (Test System: AMES SALMONELLA TYPHIMURIUM, Strain/Indicator: TA98(1,8-DNP6), Metabolic Activation: NONE, Method: STANDARD PLATE) was “inactive; negative”. The mutagenic call (Test System: AMES SALMONELLA TYPHIMURIUM, Strain/Indicator: TA98(1,8-DNP6), Metabolic Activation: S-9, Method: STANDARD PLATE) was “active; positive”, the mutagenic call (Test System: AMES SALMONELLA TYPHIMURIUM, Strain/Indicator: TA98, Metabolic Activation: HAMSTER, LIVER, S-9, AROCLOR 1254 (10%), Method: PREINCUBATION) was “active; positive” and the mutagenic call (Test System: AMES SALMONELLA TYPHIMURIUM, Strain/Indicator: TA98, Metabolic Activation: HAMSTER, LIVER, S-9, AROCLOR 1254, Method: PREINCUBATION) was “active; positive”. The mutagenic call [1] was “inactive; negative”, the mutagenic call (Test System: AMES SALMONELLA TYPHIMURIUM, Strain/Indicator: TA98, Metabolic Activation: NONE, Method: STANDARD PLATE) was “inactive; negative” and the mutagenic call (Test System: AMES SALMONELLA TYPHIMURIUM, Strain/Indicator: TA98, Metabolic Activation: RAT LIVER S-9, AROCLOR 1254, Method: PREINCUBATION) was “active; positive”. For the same compound, the mutagenic call (Test System: AMES SALMONELLA TYPHIMURIUM, Strain/Indicator: TA98, Metabolic Activation: RAT LIVER S-9, PHENOBARBITAL AND BETA-NAPHTHOFLAVONE, Method: PREINCUBATION) was “active; positive”, the mutagenic call (Test System: AMES SALMONELLA TYPHIMURIUM, Strain/Indicator: TA98, Metabolic Activation: RAT, LIVER, S-9, AROCLOR 1254 (10%), Method: PREINCUBATION) was “active; positive” and the mutagenic call (Test System: AMES SALMONELLA TYPHIMURIUM, Strain/Indicator: TA98, Metabolic Activation: RAT, LIVER, S-9, AROCLOR 1254, Method: PREINCUBATION) was “active; positive”. For the same compound, the mutagenic call (Test System: AMES SALMONELLA TYPHIMURIUM, Strain/Indicator: TA98, Metabolic Activation: RAT, LIVER, S-9, AROCLOR 1254, Method: STANDARD PLATE) was “active; positive”, the mutagenic call (Test System: AMES SALMONELLA TYPHIMURIUM, Strain/Indicator: TA98, Metabolic Activation: S-9, Method: STANDARD PLATE) was “active; positive” and the mutagenic call (Test System: AMES SALMONELLA TYPHIMURIUM, Strain/Indicator: TA100, Metabolic Activation: HAMSTER, LIVER, S-9, AROCLOR 1254 (10%), Method: PREINCUBATION) was “inactive; negative”. The mutagenic call (Test System: AMES SALMONELLA TYPHIMURIUM, Strain/Indicator: TA100, Metabolic Activation: HAMSTER, LIVER, S-9, AROCLOR 1254, Method: PREINCUBATION) was “inactive; negative”, the mutagenic call [2] was “inactive; negative” and the mutagenic call (Test System: AMES SALMONELLA TYPHIMURIUM, Strain/Indicator: TA100, Metabolic Activation: NONE, Method: STANDARD PLATE) was “inactive; negative”. For the same compound, the mutagenic call (Test System: AMES SALMONELLA TYPHIMURIUM, Strain/Indicator: TA100, Metabolic Activation: RAT LIVER S-9, AROCLOR 1254, Method: PREINCUBATION) was “inactive; negative”, the mutagenic call (Test System: AMES SALMONELLA TYPHIMURIUM, Strain/Indicator: TA100, Metabolic Activation: RAT LIVER S-9, PHENOBARBITAL AND BETA-NAPHTHOFLAVONE, Method: PREINCUBATION) was “inactive; negative” and the mutagenic call (Test System: AMES SALMONELLA TYPHIMURIUM, Strain/Indicator: TA100, Metabolic Activation: RAT, LIVER, S-9, AROCLOR 1254 (10%), Method: PREINCUBATION) was “inactive; negative”. The mutagenic call (Test System: AMES SALMONELLA TYPHIMURIUM, Strain/Indicator: TA100, Metabolic Activation: RAT, LIVER, S-9, AROCLOR 1254, Method: PREINCUBATION) was “inactive; negative”, the mutagenic call (Test System: AMES SALMONELLA TYPHIMURIUM, Strain/Indicator: TA100, Metabolic Activation: S-9, Method: STANDARD PLATE) was “active; positive” and the mutagenic call (Test System: AMES SALMONELLA TYPHIMURIUM, Strain/Indicator: TA1535, Metabolic Activation: HAMSTER, LIVER, S-9, AROCLOR 1254 (10%), Method: PREINCUBATION) was “inactive; negative”. For the same compound, the mutagenic call (Test System: AMES SALMONELLA TYPHIMURIUM, Strain/Indicator: TA1535, Metabolic Activation: HAMSTER, LIVER, S-9, AROCLOR 1254, Method: PREINCUBATION) was “inactive; negative”, the mutagenic call (Test System: AMES SALMONELLA TYPHIMURIUM, Strain/Indicator: TA1535, Metabolic Activation: NONE, Method: PREINCUBATION) was “inactive; negative” and the mutagenic call (Test System: AMES SALMONELLA TYPHIMURIUM, Strain/Indicator: TA1535, Metabolic Activation: RAT, LIVER, S-9, AROCLOR 1254 (10%), Method: PREINCUBATION) was “inactive; negative”. The mutagenic call (Test System: AMES SALMONELLA TYPHIMURIUM, Strain/Indicator: TA1535, Metabolic Activation: RAT, LIVER, S-9, AROCLOR 1254, Method: PREINCUBATION) was “inactive; negative”, the mutagenic call (Test System: AMES SALMONELLA TYPHIMURIUM, Strain/Indicator: TA1537, Metabolic Activation: RAT LIVER S-9, PHENOBARBITAL AND BETA-NAPHTHOFLAVONE, Method: PREINCUBATION) was “inactive; negative” and the mutagenic call (Test System: AMES SALMONELLA TYPHIMURIUM, Strain/Indicator: TA1538, Metabolic Activation: HAMSTER, LIVER, S-9, Method: STANDARD PLATE) was “active; positive”. The mutagenic call (Test System: AMES SALMONELLA TYPHIMURIUM, Strain/Indicator: TA1538, Metabolic Activation: RAT, LIVER, S-9, AROCLOR 1254, Method: STANDARD PLATE) was “active; positive”, the mutagenic call (Test System: Ames Salmonella typhimurium, Strain/Indicator: TA98, Metabolic Activation: Rat, Liver, S-9, Sodium phenobarbitone, Method: Preincubation) was “active; positive, test conducted under both aerobic and anaerobic conditions” and the mutagenic call (Test System: Ames Salmonella typhimurium, Strain/Indicator: TA102, Metabolic Activation: None, Method: Preincubation) was “inactive; negative”. For the same compound, the mutagenic call (Test System: Ames Salmonella typhimurium, Strain/Indicator: TA102, Metabolic Activation: Rat, Liver, S-9, Aroclor 1254, Method: Preincubation) was “inactive; negative”, the mutagenic call (Test System: Ames Salmonella typhimurium, Strain/Indicator: TA1538, Metabolic Activation: Rat, Liver, S-9, Sodium phenobarbitone, Method: Preincubation) was “active; positive, test conducted under both aerobic and anaerobic conditions” and the mutagenic call (Test System: MOUSE LYMPHOMA, Strain/Indicator: L5178Y (TK+/TK-), Metabolic Activation: NONE, Method: SUSPENSION/PLATE) was “active; positive”. The mutagenic call (Test System: MOUSE LYMPHOMA, Strain/Indicator: L5178Y (TK+/TK-), Metabolic Activation: RAT, LIVER, S-9, AROCLOR 1254, Method: SUSPENSION/PLATE) was “active; positive”.
With `c1ccc2cc3c(ccc4c5ccccc5ccc34)cc2c1` the mutagenic call (Test System: AMES SALMONELLA TYPHIMURIUM, Strain/Indicator: TA100, Metabolic Activation: RAT, LIVER, MICROSOMES, AROCLOR 1254, Method: STANDARD PLATE) was “inactive; negative”, the mutagenic call (Test System: AMES SALMONELLA TYPHIMURIUM, Strain/Indicator: TA100, Metabolic Activation: RAT, LIVER, MICROSOMES, BENZO[B]CHRYSENE, Method: STANDARD PLATE) was “inactive; negative” and the mutagenic call (Test System: AMES SALMONELLA TYPHIMURIUM, Strain/Indicator: TA100, Metabolic Activation: RAT, LIVER, MICROSOMES, Method: STANDARD PLATE) was “inactive; negative”.
For `O=C(O)c1ccc(Cl)c([N+](=O)[O-])c1`, the mutagenic call [1] was “active; positive”, the mutagenic call (Test System: AMES SALMONELLA TYPHIMURIUM, Strain/Indicator: TA98, Metabolic Activation: RAT, LIVER, S-9, KANECHLOR 500, Method: PREINCUBATION) was “inactive; negative” and the mutagenic call [2] was “active; positive”. For the same compound, the mutagenic call (Test System: AMES SALMONELLA TYPHIMURIUM, Strain/Indicator: TA100, Metabolic Activation: RAT, LIVER, S-9, KANECHLOR 500, Method: PREINCUBATION) was “active; positive”.

Source: PubChem BioAssay AID1259407 (Chemical Carcinogenesis Research Information System (CCRIS), 2018)
